Laboratory results taken from patent US10172953B2, “XTEN conjugate compositions and methods of making same” (Amunix Operating Inc., priority 2012, dated 2019).
Square brackets hold non-standard residues; d marks the D form. Peptide text beside a SMILES is read from it. * marks the point of attachment. Dolaproine = CO[C@@H]([C@@H]1CCCN1)[C@@H](C)C(=O)O; Dil = CC[C@H](C)[C@H](NC)[C@@H](CC(=O)O)OC; X1 = C[C@@H](N*)[C@@H](O)c1ccccc1; NMeV = CN[C@H](C(=O)O)C(C)C

Columns and labels:
[1] = system: folate receptor-positive KB cell line; assay: CellTiter-Glo anti-proliferation assay on KB cells; format: cell-based; conditions: absence of folic acid competitor, read-out: IC50 (cell killing)
Protocol: The ability to selectively target and kill cells bearing folate receptors was evaluated. Test articles of free MMAE, a non-targeting 3×MMAE-XTEN conjugate (XTEN linked to toxin) and the folate receptor-targeted 3×FA(γ),3×MMAE-XTEN conjugate were evaluated in a CellTiter-Glo anti-proliferation assay using the folate receptor-positive KB cell line. As culture media contain high folic acid content, KB cells were grown in folic acid-free media containing 10% heat-inactivated fetal calf serum at 37° C., 5% C02 for at least 7 days prior to the commencement of the cell viability experiment, This medium was also utilized for the execution of the experiment. In brief, KB cells were plated at 10,000 cells per well onto a 96-well microtiter assay plate. KB cells were allowed to adhere to the plate by an overnight incubation at 37° C., 5% CO2. The spent media was then removed and wells designated to contain folic acid competitor received assay medium containing folic acid, while wells not designated to have folic acid competitor received assay medium only. The plate was incubated for 30 min at 37° C., 5% CO2 before the assay media was aspirated and plate washed with assay media. […] After the appropriate incubation period, CellTiter-Glo reagent was added and the plate was read on a luminometer. The IC50 of each test article was determined using a 4 parameter logistic curve fit using GraphPad Prism.

[2] = rats, intravenous administration; cited from earlier work

| Molecule | IC50 [1] [nM] | terminal half-life [2] |
| --- | --- | --- |
| CC[C@H](C)[C@@H]([C@@H](CC(=O)N1CCC[C@H]1[C@H](OC)[C@@H](C)C(=O)N[C@H](C)[C@@H](O)c1ccccc1)OC)N(C)C(=O)[C@@H](NC(=O)[C@@H](NC)C(C)C)C(C)C [MMAE, monomethyl auristatin E] (H-[NMeV]V[Dil][Dolaproine]-X1) | 0.8 |  |
| follistatin: protein encoded by the FST gene (protein, UniProt P19883 30-344, looked up) Follistatin: GNCWLRQAKNGRCQVLYKTELSKEECCSTGRLSTSWTEEDVNDNTLFKWMIFNGGAPNCIPCKETCENVDCGPGKKCRMNKKNKPRCVCAPDCSNITWKGPVCGLDGKTYRNECALLKARCKEQPELEVQYQGRCKKTCRDVFCPGSSTCVVDQTNNAYCVTCNRICPEPASSEQYLCGNDGVTYSSACHLRKATCLLGRSIGLAYEGKCIKAKSCEDIQCTGGKKCLWDFKVGRGRCSLCDELCPDSKSDEPVCASDNATYASECAMKEAACSSGVLLEVKHSGSCNSISEDTEEEEEDEDQDYSFPISSILEW |  | over 2 hours |
